Reference: patent publication US20250017886A1, “FORMULATIONS AND METHODS FOR INCREASING CREATININE LEVELS IN PLASMA, EXTRACELLULAR FLUID AND/OR INTRACELLULAR COMPARTMENTS” (Vireo Systems, Inc., priority 2023, published 2025)
Converted amounts (≈) assume the structure as drawn. “Also recorded” adds a separate entry of the source. Where a name gives a salt, the structure may show the parent alone.

Columns and labels:
[1] = target: T1, COX2 (Homo sapiens, UniProt P35354); experiment: COX activity, COX2; format: biochemical
T1 sequence (P35354 18-604): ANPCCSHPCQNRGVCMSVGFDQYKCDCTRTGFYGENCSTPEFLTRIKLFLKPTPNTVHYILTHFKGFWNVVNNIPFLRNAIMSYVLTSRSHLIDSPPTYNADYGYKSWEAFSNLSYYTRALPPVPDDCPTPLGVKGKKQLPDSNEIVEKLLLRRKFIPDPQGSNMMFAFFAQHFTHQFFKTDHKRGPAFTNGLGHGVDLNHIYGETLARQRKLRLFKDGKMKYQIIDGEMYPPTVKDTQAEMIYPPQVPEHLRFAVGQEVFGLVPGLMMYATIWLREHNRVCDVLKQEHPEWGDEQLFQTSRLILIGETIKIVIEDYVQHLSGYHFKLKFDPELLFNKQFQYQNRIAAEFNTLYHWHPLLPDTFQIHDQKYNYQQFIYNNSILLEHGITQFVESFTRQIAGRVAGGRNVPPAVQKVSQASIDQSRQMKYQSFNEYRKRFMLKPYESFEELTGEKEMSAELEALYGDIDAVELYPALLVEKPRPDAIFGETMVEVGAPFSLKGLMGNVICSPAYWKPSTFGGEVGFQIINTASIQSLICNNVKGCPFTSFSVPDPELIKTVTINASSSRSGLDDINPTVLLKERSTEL
Text: (§1) The effects of the creatinine pronutrient on PGE2 release was not due to the inhibition of prostaglandin synthesis through cyclooxygenase (COX) as production of prostaglandins by either COX1 or COX2 was unaffected by CEE.

[2] = target: COX1 (Homo sapiens, UniProt P23219); experiment: COX activity, COX1; format: biochemical
Chain of COX1 (P23219 24-599): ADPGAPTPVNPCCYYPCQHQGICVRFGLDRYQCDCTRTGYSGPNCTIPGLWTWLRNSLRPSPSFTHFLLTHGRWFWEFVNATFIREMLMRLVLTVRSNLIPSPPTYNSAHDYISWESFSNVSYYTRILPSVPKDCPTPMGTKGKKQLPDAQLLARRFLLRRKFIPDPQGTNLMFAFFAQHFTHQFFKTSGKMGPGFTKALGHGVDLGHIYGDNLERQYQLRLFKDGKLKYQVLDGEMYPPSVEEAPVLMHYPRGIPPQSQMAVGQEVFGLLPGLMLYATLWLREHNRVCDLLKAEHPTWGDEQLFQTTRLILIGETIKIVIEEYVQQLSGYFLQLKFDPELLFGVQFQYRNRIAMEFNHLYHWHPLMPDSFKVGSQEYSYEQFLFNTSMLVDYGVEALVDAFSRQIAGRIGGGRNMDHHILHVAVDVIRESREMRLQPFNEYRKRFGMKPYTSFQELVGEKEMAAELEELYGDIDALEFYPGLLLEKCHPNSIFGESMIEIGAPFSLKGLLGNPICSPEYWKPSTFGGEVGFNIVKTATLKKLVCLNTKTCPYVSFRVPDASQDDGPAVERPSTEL
Text: as §1

[3] = Saturated aqueous solubility determination (HPLC); format: physicochemical; settings: for Ratio (relative to CM): solubility relative to creatine monohydrate; for solubility at 1.5 h: thermodynamic from solid, deionized water, 25° C.
Protocol: After 1.5 hour, the saturated solutions were vortexed and 2-ml aliquots removed and centrifuged in microcentrifuge tubes at 11,000 rpm for 5 min. Concentrations were analyzed by HPLC by diluting 500 μL of supernatant with mobile phase (500 μL). The mean±standard deviation of the saturation solubility for each antiviral therapeutic compound is calculated from the corresponding standard curves.

[4] = tested on: hBMEC/d3 cells; experiment: Bradykinin-induced prostaglandin E2 release (PGE2 ELISA); format: cell-based; settings: for inhibition of prostaglandin (PGE2) release: 1.0 mM, 1-hour preincubation, 10 μM bradykinin, at 6 and 24 hours, compared with 10 μM HOE 140
Protocol: In an effort to determine the impact/effectiveness of creatinine pronutrient formulations made in accordance with the present disclosure on decreasing prostaglandin release over a 24-hour period due to bradykinin exposure, hBMEC/d3 cells were pre-treated with a creatinine pronutrient of the present disclosure and then exposed to 10 μM bradykinin. More specifically, hBMEC/d3 cells were grown on T25 flasks to confluency. Media was removed and exchanged with endothelial cell media containing 0.1% BSA and (1) 1.0 mM CEE, (2) 1.0 mM creatine t-butyl ester hydrochloride (CtB), or (3) 10 μM HOE 140 (a known BR2 receptor antagonist). After a 1-hour incubation, bradykinin (10 μM) was added and samples of media removed and assayed for prostaglandin E2 (PGE2) at 3, 6 and 24 hours. The amount of PGE 2 secreted into the media by the cells was determined using a PGE2 ELISA and normalized to cell lysate protein content.

[5] = Rat PK study, plasma levels after creatinine pronutrient dosing; format: in vivo, sprague-dawley male rats
Protocol: A rat PK study was performed to determine resulting plasma creatinine levels following creatinine pronutrient dosing. […] Levels of creatine, creatinine pronutrient, and creatinine in the plasma were measured over time. In this study, the specific creatinine pronutrient used was creatine ethyl ester hydrochloride. Blood samples were collected over a 4-hour period via femoral artery catheter. Muscle and brain tissue were collected at the end of the study. Liquid chromatography-mass spectrometry (LCMS) was used for analysis of samples. The area under the plasma concentration curve following oral dosing was compared to that obtained following IV administration. The creatinine pronutrient formulation data in Table 4 was generated from the creatinine data gathered in Example 4 using allometric dosing to determine the human dose equivalent for the labeled creatinine pronutrient (for a 70 kg human). In order to assess the relative bioavailability of the formulations (and to correct for the slightly different doses administered with various forms due to the different molecular weights), the AUC plasma uptake values observed for creatinine and the creatinine pronutrient formulation were entered into the following equation to produce a ratio: […]

[6] = tested on: hCMEC/d3 (human brain endothelial cells); experiment: Bradykinin-induced permeability in microfluidic BBB culture model; format: cell-based; settings: 1 mM CEE pretreatment 1-hour
Protocol: In an effort to determine the impact/effectiveness of creatinine pronutrient formulations made in accordance with the present disclosure, studies examined bradykinin-induced effects on endothelial permeability using a microfluidic blood-brain barrier (BBB) culture model consisting of hCMEC/d3 (human brain endothelial cells) grown on Mimeta microfluidic plates. More specifically, permeability studies were performed using the microfluidic BBB culture model under control conditions and following exposure to a low dose (10 nM) or high dose (10 μM) of bradykinin in either the presence or absence of creatine ethyl ester hydrochloride (CEE) as the creatinine pronutrient.
hCMEC/d3 cells in Mimeta microfluidic plate were pretreated for 1 hour with media or media+1 mM CEE. Thereafter, the cells were treated with a low concentration (10 nM) or high concentration (10 μM) of bradykinin. The permeability of a fluorescent dye (IRdye 800) was assessed after 30 minutes.

[7] = tested on: hCMEC/d3 microfluidic culture model; experiment: Permeability of microfluidic BBB model treated with cancer patient plasma; format: cell-based, human; settings: for permeability coefficient: 1 mM CtB
[8] = tested on: human colon epithelial (Caco-2); experiment: Creatinine uptake in Caco-2 cells; format: cell-based; settings: Caco-2, 1 mM, 3-hour period; hydrochloride
[9] = tested on: human brain endothelial cells (HCMEC/d3); experiment: Creatinine uptake in HCMEC/d3 cells; format: cell-based; settings: HCMEC/d3, 1 mM, 3-hour period
Protocol: In an effort to determine the impact/effectiveness of a formulation made in accordance with the present disclosure on increasing creatinine delivery, different cell types were exposed to several of the formulations in Example 1. More specifically, cellular uptake studies were performed for formulations including CEE and CtB from Example 1. […] In other words, it remains unknown where there is a transporter involved in the accumulation of creatinine. Without being bound by any particular theory, if a transporter is involved for accumulation of creatinine, it may be the organic cation transporter 2 (OCT2) found in kidney tubule epithelial cells. The various cell lines discussed above were first exposed to 1 mM of creatinine (CRN), CEE, and CtB at 37° C. for a 3-hour incubation period at a pH 7.4. After incubation, the assay buffer was collected. The cells were then washed rapidly three times with ice-cold phosphate-buffered saline solution. […] More specifically, the creatinine content in cell lysates was determined using QuantichromTM Creatinine Assay Kit (DICT 500) from Bioassay Systems (Hayward, CA). The assay quantitatively measures creatinine without any pretreatment through an optimized Jaffe method. […] The intensity of the red, measured at 510 nm, is directly proportional to the concentration of creatinine in the sample. […]

[10] = cited from earlier work
[11] = human, oral 3 grams creatinine given with 3 grams creatine nitrate; cited from earlier work
[12] = Human single oral dose pharmacokinetics of creatinine (Ostojic et al. 2019); format: in vivo; settings: plasma, oral 3 grams creatinine given with 3 grams creatine nitrate, computed from literature data, read-out: AUC(0-120m) (converted)
Text: The creatinine data in Table 4 was generated from the data provided in Ostojic et al., Food Sci Nutr. 2019. […] In order to assess the relative bioavailability of the formulations (and to correct for the slightly different doses administered with various forms due to the different molecular weights), the AUC plasma uptake values observed for creatinine and the creatinine pronutrient formulation were entered into the following equation to produce a ratio: […]

[13] = rat, after 10 or 70 mg/kg oral or 10 mg/kg IV creatinine pronutrient

Q: Which results are given for `CCOC(=O)CN(C)C(=N)N` [CEE, creatine ethyl ester hydrochloride]?
A: production of prostaglandins by COX2 [1]: unaffected; production of prostaglandins by COX1 [2]: unaffected; Ratio (relative to CM) [3]: >9; solubility at 1.5 h [3]: 205 mg/mL; PGE release in response to bradykinin [4]: prevents PGE release; inhibition of prostaglandin (PGE2) release [4]: as effective at inhibiting prostaglandin release as the known BR2 receptor antagonist HOE 140; creatinine delivered to the plasma as compared to creatinine ([5]; high and low doses): twice as much; creatine in plasma samples [5, 13]: no detectable amount; creatinine pronutrient in plasma samples [5, 13]: Small but measurable amounts; creatinine in plasma samples ([5]; rat, after creatinine pronutrient dosing, especially at the high dose): Substantial levels; permeability coefficient of IRdye 800 ([6]; then 10 nM bradykinin (1.05×10^−8 without CEE)): 3.43e-09 cm/s; permeability coefficient of IRdye 800 ([6]; then 10 μM bradykinin (2.90×10^−8 without CEE)): 1.42e-08 cm/s

Q: What does the source list for `CC(C)CCOC(=O)CN(C)C(=N)N` [Creatine Isopentyl Ester HCl, creatine isopentyl ester hydrochloride]?
A: Ratio (relative to CM) [3]: >29; solubility at 1.5 h [3]: > 600 mg/mL

Q: Which results are given for `CN(CC(=O)OC(C)(C)C)C(=N)N.Cl` [CtB, creatine tert-butyl ester hydrochloride]?
A: Ratio (relative to CM) [3]: ≥18; solubility at 1.5 h [3]: 389 mg/mL; inhibition of prostaglandin (PGE2) release [4]: as effective at inhibiting prostaglandin release as the known BR2 receptor antagonist HOE 140; permeability coefficient ([7]; breast cancer patient CF80 6 month plasma, 24-hour treatment (2.78×10^−8 without CtB)): 9.63e-09 cm/s; permeability coefficient ([7]; breast cancer patient CF80 baseline plasma, 24-hour treatment (1.06×10^−8 without CtB)): 2.97e-09 cm/s; permeability increases produced by plasma samples from cancer patients ([7]; addition of 1 mM): attenuated; creatinine accumulation compared with 1 mM creatinine [8]: greater; also recorded: almost double; creatinine accumulation compared with 1 mM creatinine [9]: greater

Q: For `CCOC(=O)CNC(=O)CN(C)C(=N)N` [Creatine Glycinamide Ethyl Ester HCl, creatine glycinamide ethyl ester], which “Ratio (relative to CM)” value [3] is on record?
A: >29

Q: And the solubility at 1.5 h [3]?
A: > 600 mg/mL

Q: What does the source list for `CN(CC(=O)OC1CCCCC1)C(=N)N` [Creatine Cyclohexyl Ester Tosylate, creatine cyclohexyl ester]?
A: Ratio (relative to CM) [3]: <1.0; solubility at 1.5 h [3]: 15 to 20 mg/mL

Q: What does the source list for `CCOC(=O)CCNC(=N)N` [Ethyl (α-guanido-methyl) ethonoate, ethyl (α-guanido-methyl) ethanoate]?
A: Ratio (relative to CM) [3]: >8; solubility at 1.5 h [3]: 178 ± 7.2 mg/mL (≈ 1120 mM)

Q: For `CN1CC(=O)NC1=N` [Creatinine, creatinine], which solubility [10] is on record?
A: 23 mg/mL (≈ 203 mM)

Q: What about the “Cmax (plasma creatinine)” value [11] of the same compound?
A: 15.3 µg/mL

Q: And the “Cmin (plasma creatinine)” value [11]?
A: 11.3 µg/mL

Q: And the Tmax [11]?
A: 60 min

Q: And the AUC [12]?
A: 4600 ng·h/mL
